Assay results published in US20050107611A1, “Pyrazolyl-substituted triazoloquinoxalines” (priority 2001, published 2005).

How the values were obtained:
human A2B-receptor = molecular target: T1, human A2B-receptor (Homo sapiens, UniProt P29275); assay: Receptor binding assay with [3H]ZM241385 on recombinant A2B-adenosine receptors in HEK cells; settings: for Ki: Table 2, [3H]ZM241385, read-out: A2B K1
T1 construct: purchased Receptor Biology USA via Perkin Elmer Life Sciences, Cologne, Germany; host or cells: HEK cells (membranes)
T1 sequence (P29275 1-332): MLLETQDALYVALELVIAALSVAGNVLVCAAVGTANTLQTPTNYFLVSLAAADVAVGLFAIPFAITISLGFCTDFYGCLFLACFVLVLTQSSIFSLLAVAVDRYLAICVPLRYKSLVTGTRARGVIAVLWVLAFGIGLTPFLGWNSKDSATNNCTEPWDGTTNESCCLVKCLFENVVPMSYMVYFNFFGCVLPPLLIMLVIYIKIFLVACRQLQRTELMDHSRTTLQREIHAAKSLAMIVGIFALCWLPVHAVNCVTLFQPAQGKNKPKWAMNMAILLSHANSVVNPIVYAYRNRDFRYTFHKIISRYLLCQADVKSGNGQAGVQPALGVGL
Excerpt: (§1) The data of the biological tests that are cited below results from radioligand-binding assays on A1, A2A, A2B and A3 adenosine receptors (ARs).
(§2) The following selective radioligands are used in the biological tests: • [^3H]CCPA (for A1 ARs) [Klotz et al., Naunyn-Schmiedeberg's Arch. Pharmacol., 340, 679 (1989)] • [^3]MSX-2 (for A2A ARs) [Muiller et al., Eur. J. Pharm. Sci., 10, 259 (2000)] • [^3H]ZM241385 (for A2B ARs_[X.-D. Ji, K. A. Jacobson, Drug Des. Discov., 16, 217 (1999)] • [^3H]PSB-11 (new antagonistic radioligand for human A3 ARs) [M. Dieckmann, M. Thorand, V. Ozola, C. E. Muiller, in Vorbereitung [Preparation] (2001)]. • [^125I]AB-MECA (for rat-A3 ARs) [Olah et al., Mol. Pharmacol., 45, 978 (1994)]. Description of the Assays That are Used for Testing Substances Production of Tissue Preparations Made from Rat Brains
In addition, A28-adenosine receptor membranes are prepared, whereby, for example, finished prepared membranes of HEK cells, which express the human A2B-receptor in high density (about 4 pmol/mg of protein), were available commercially (Receptor Biology USA via Perkin Elmer Life Sciences, Cologne, Germany).
The test substances are dissolved in DMSO to 10 mmol. The final concentration of DMSO in the assay is 2.5% for A1- and A2A-adenosine receptor assays and 1-2% for A2B- and A3-assays. Dilution series of the test substances are produced from the stock solution. Five to eight different test concentrations, which comprise 3 orders of magnitude (e.g., 1 nm to 1000 nm), are used. […]
(§3) The mean value is calculated from three independent experiments. IC50 and K, values are obtained from the Cheng-Prusoff equation, the concentration and the KD value of the radioligand. For calculation, the program GraphPadPrism™, Version 3.0 (GraphPad, San Diego, Calif., USA), was used.

A2A adenosine receptor = A2A adenosine receptor (Rattus norvegicus, UniProt P30543); assay: Receptor binding assay with [3H]MSX-2 on A2A-adenosine receptors; design: tissue Pel Freez Company (Rogers, Ark., USA); host or cells: rat brain striatum membranes; settings: for Ki: Table 2, [3H]MSX-2, read-out: A2A K1
Sequence of A2A adenosine receptor (P30543 whole entry): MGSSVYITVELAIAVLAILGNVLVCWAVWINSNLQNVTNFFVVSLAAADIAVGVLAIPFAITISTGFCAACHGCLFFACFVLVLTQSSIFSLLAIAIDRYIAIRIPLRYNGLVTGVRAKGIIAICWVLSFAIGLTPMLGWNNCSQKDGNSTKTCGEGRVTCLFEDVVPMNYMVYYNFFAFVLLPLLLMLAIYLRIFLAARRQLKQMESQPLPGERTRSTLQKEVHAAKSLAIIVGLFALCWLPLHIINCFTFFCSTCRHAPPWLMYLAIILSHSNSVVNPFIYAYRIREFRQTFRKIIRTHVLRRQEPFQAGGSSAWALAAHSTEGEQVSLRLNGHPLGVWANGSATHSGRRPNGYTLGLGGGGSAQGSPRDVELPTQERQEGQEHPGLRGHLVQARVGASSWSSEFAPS
Excerpt: as §1, §2
The cell decomposing of the cerebral cortex is carried out with a glass-Teflon homogenizer (stages 5-6, 10 seconds) in 0.32 M saccharose solution. The membranes are purified over various centrifuging steps. With centrifuging at 600 g, 4° C., for 10 minutes, a large amount of cell debris is separated via the P1 fraction, and the supernatant (P2 fraction) is further worked up: in the subsequent three centrifuging steps (35,000 g; 4° C.; 60 minutes), a pellet is produced that is resuspended in 50 mmol of TRIS buffer, pH 7.4 with the Ultraturrax (stages 3-4, 3 seconds); the respective supernatant is discarded. The striata are added to cold TRIS buffer, homogenized with the Ultraturrax in stages 3 to 4-(3 seconds) and then centrifuged at 35,000 g, 4° C., for 20 minutes. The supernatant is discarded, and the pellet is resuspended in 50 mmol of TRIS buffer (50 mmol, pH 7.4). The washing process is repeated twice more. The membrane preparations are stored at −80° C. and are held for several months. The cerebral cortex membrane preparation is used for A1-radioligand binding studies, and the striatum is used for A2A-radiologiand binding studies.
The test substances are dissolved in DMSO to 10 mmol. The final concentration of DMSO in the assay is 2.5% for A1- and A2A-adenosine receptor assays and 1-2% for A2B- and A3-assays. Dilution series of the test substances are produced from the stock solution. Five to eight different test concentrations, which comprise 3 orders of magnitude (e.g., 1 nm to 1000 nm), are used.
Receptor Binding Assay with [^3H]MSX-2 on A2A-Adenosine Receptors:
• 25 μl of DMSO, NECA (800 μmol) or test substance dilutions • 775 μl of TRIS buffer (for production, see above) • 100 μl of [^3H]MSX-2 (final concentration 1 nmol; KD value 8 nmol) • 100 μl of rat-striatum-membrane preparation or preparation of CHO cells, which express the human A2A receptor, incubated with 0.12 IE adenosine-deaminase (protein concentration: 25-75 μg/ml) • 1000 μl of final volume
The assay is performed according to the instructions of the receptor-binding assay with [^3H]CCPA with consideration of the amounts and solutions that are listed above. The incubation time is 30 minutes at 23° C. in an oscillating water bath. The glass fiber filter is introduced 30 minutes before use in 0.5% PEI solution.
as §3

A2B % inhib. @ 1 μmol (human A2B-receptor) | Ki (human A2B-receptor) [µM] | Ki (A2A adenosine receptor) [µM] | Compound | A2A % inhib. @ 10 μmol (A2A adenosine receptor)
(25%) | > 1 | 1.26 | Clc1cc(-c2nc3ccccc3n3c(-c4ccoc4)nnc23)n[nH]1 [Y = C-(3-Furyl), R5 = H, R6 = Cl] | –
(22%) | > 1 | 8.61 | Cn1nc(-c2nc3ccccc3n3c(Cc4cccs4)nnc23)cc1Cl [Y = C—CH2-(2-Thienyl), R5 = CH3, R6 = Cl, 4-(5-Chloro-1H-1-methyl-pyrazol-3-yl)-1-(2-thienylmethyl)-[1,2,4]triazolo[4,3-a]-quinoxaline] | –
(13%) | > 1 | 6.13 | Clc1cc(-c2nc3ccccc3n3nnnc23)n[nH]1 [Y = N, R5 = H, R6 = Cl, 4-[3(5)-Chloro-1H-pyrazol-5(3)-yl]tetrazolo[1,5-a]quinoxaline] | –

Continued, compound first:

Compound | A2B % inhib. @ 1 μmol (human A2B-receptor) | Ki (human A2B-receptor) [µM] | Ki (A2A adenosine receptor) [µM] | A2A % inhib. @ 10 μmol (A2A adenosine receptor)
Clc1cc(-c2nc3ccccc3n3cnnc23)[nH]n1 [Y = C—H, R5 = H, R6 = Cl] | (0%) | > 1 | > 10 | (21%)
COc1ccc2c(c1)nc(-c1cc(Cl)n[nH]1)c1nnc(Cc3cccs3)n12 [4-[3(5)-Chloro-1H-pyrazol-5(3)-yl]-7-methoxy-1-(2-thienylmethyl)-[1,2,4]triazolo[4,3-a]-quinoxaline] | (0%) | > 1 | 4.96 | –
COc1ccc2c(c1)nc(-c1cc(Cl)[nH]n1)c1nncn12 [Y = C—H, R3 = OCH3, R5 = H, R6 = Cl, 4-[3(5)-Chloro-1H-pyrazol-5(3)-yl]-7-methoxy-[1,2,4]triazolo[4,3-a]-quinoxaline] | (8%) | > 1 | > 10 | (1%)
4-(chloropyrazolyl)-1-(3-phenylpropyl)-[1,2,4-]triazolo[4,3-a]quinoxaline [Y = C—CH2—CH2—CH2-Ph, R5 = H, R6 = Cl] | (18%) | > 1 | > 10 | (6%)
